The supplement of paper PMC10307832

Columns and labels:
Experiment in all cases: relative viability (nuclei count vs DMSO), 5 days (fraction); higher = more cells survive
[1] = tested on: NCI-H322M
Summary of the method: (§1)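 Relative viability is defined as nuclei in treated wells over nuclei in vehicle wells. Duplicate plates were run and medians reported. Lung cancer cell lines in 1536-well plates were dosed by pin tool one day after seeding, with one drug or with a fixed anchor-drug dose plus five library-drug doses (not always all listed) in √10 steps, and nuclei were counted after 5 days.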

[2] = tested on: HCC-44
Summary of the method: as §1

[3] = tested on: NCI-H1395
Summary of the method: as §1

[4] = tested on: SK-LU-1
Summary of the method: as §1

[5] = tested on: NCI-H727
Summary of the method: as §1

[6] = tested on: BEN
Summary of the method: as §1

[7] = tested on: NCI-H2228
Summary of the method: as §1

[8] = tested on: HOP-62
Summary of the method: as §1

[9] = tested on: 201T
Summary of the method: as §1

[10] = tested on: NCI-H2087
Summary of the method: as §1

[11] = tested on: NCI-H647
Summary of the method: as §1

[12] = tested on: LXF-289
Summary of the method: as §1

[13] = tested on: LCLC-103H
Summary of the method: as §1

[14] = tested on: LCLC-97TM1
Summary of the method: as §1

[15] = tested on: NCI-H2023
Summary of the method: as §1

[16] = tested on: HCC-827
Summary of the method: as §1

[17] = tested on: NCI-H2405
Summary of the method: as §1

[18] = tested on: RERF-LC-KJ
Summary of the method: as §1

[19] = tested on: NCI-H3122
Summary of the method: as §1

[20] = tested on: NCI-H1355
Summary of the method: as §1

[21] = tested on: NCI-H1793
Summary of the method: as §1

[22] = tested on: NCI-H1437
Summary of the method: as §1

[23] = tested on: CAL-12T
Summary of the method: as §1

For `COc1cc(N2CCC(C(N)=O)CC2)ccc1Nc1nc(N)c(Cl)c(Nc2ccccc2S(=O)(=O)C(C)C)n1` [HG-5-88-01] + Cc1nc(NC(=O)N2CCC[C@H]2C(N)=O)sc1-c1ccnc(C(C)(C)C(F)(F)F)c1 [Alpelisib] (partner 2 µM), the relative viability ([1]; first compound 0.04 µM) was 0.774, the relative viability ([1]; first compound 0.1265 µM) was 0.841 and the relative viability ([1]; first compound 0.4 µM) was 0.903. It also gave a relative viability ([1]; first compound 1.265 µM) of 0.726, a relative viability ([1]; first compound 4 µM) of 0.639 and a relative viability ([2]; first compound 0.04 µM) of 0.858. It also gave a relative viability ([2]; first compound 0.1265 µM) of 0.824, a relative viability ([2]; first compound 0.4 µM) of 0.701 and a relative viability ([2]; first compound 1.265 µM) of 0.68. It also gave a relative viability ([2]; first compound 4 µM) of 0.471, a relative viability ([3]; first compound 0.04 µM) of 1.09 and a relative viability ([3]; first compound 0.1265 µM) of 1.06. The relative viability ([3]; first compound 0.4 µM) was 1.1, the relative viability ([3]; first compound 1.265 µM) was 0.909 and the relative viability ([3]; first compound 4 µM) was 0.986. The relative viability ([4]; first compound 0.04 µM) was 1.18, the relative viability ([4]; first compound 0.1265 µM) was 0.988 and the relative viability ([4]; first compound 0.4 µM) was 0.895. The relative viability ([4]; first compound 1.265 µM) was 0.966, the relative viability ([4]; first compound 4 µM) was 0.797 and the relative viability ([5]; first compound 0.04 µM) was 0.517. It also gave a relative viability ([5]; first compound 0.1265 µM) of 0.512, a relative viability ([5]; first compound 0.4 µM) of 0.519 and a relative viability ([5]; first compound 1.265 µM) of 0.329. The relative viability ([5]; first compound 4 µM) was 0.27, the relative viability ([6]; first compound 0.04 µM) was 0.948 and the relative viability ([6]; first compound 0.1265 µM) was 1.03. For the same compound, the relative viability ([6]; first compound 0.4 µM) was 1.04, the relative viability ([6]; first compound 1.265 µM) was 0.853 and the relative viability ([6]; first compound 4 µM) was 1.15. It also gave a relative viability ([7]; first compound 0.04 µM) of 0.242, a relative viability ([7]; first compound 0.1265 µM) of 0.297 and a relative viability ([7]; first compound 0.4 µM) of 0.324. The relative viability ([7]; first compound 1.265 µM) was 0.224, the relative viability ([7]; first compound 4 µM) was 0.476 and the relative viability ([8]; first compound 0.04 µM) was 0.835. The relative viability ([8]; first compound 0.1265 µM) was 0.924, the relative viability ([8]; first compound 0.4 µM) was 0.999 and the relative viability ([8]; first compound 1.265 µM) was 0.981. For the same compound, the relative viability ([8]; first compound 4 µM) was 1.41, the relative viability ([9]; first compound 0.04 µM) was 0.99 and the relative viability ([9]; first compound 0.1265 µM) was 1.06. It also gave a relative viability ([9]; first compound 0.4 µM) of 1.06, a relative viability ([9]; first compound 1.265 µM) of 0.974 and a relative viability ([9]; first compound 4 µM) of 1.09. It also gave a relative viability ([10]; first compound 0.04 µM) of 0.967, a relative viability ([10]; first compound 0.1265 µM) of 1.17 and a relative viability ([10]; first compound 0.4 µM) of 0.997. For the same compound, the relative viability ([10]; first compound 1.265 µM) was 1.04, the relative viability ([10]; first compound 4 µM) was 0.974 and the relative viability ([11]; first compound 0.04 µM) was 1.09. It also gave a relative viability ([11]; first compound 0.1265 µM) of 1.15, a relative viability ([11]; first compound 1.265 µM) of 1.09 and a relative viability ([11]; first compound 4 µM) of 1.4. The relative viability ([12]; first compound 0.04 µM) was 1.05, the relative viability ([12]; first compound 0.1265 µM) was 1.04 and the relative viability ([12]; first compound 0.4 µM) was 1. It also gave a relative viability ([12]; first compound 1.265 µM) of 1.08, a relative viability ([12]; first compound 4 µM) of 0.968 and a relative viability ([13]; first compound 0.04 µM) of 0.938. The relative viability ([13]; first compound 0.1265 µM) was 0.968, the relative viability ([13]; first compound 0.4 µM) was 0.949 and the relative viability ([13]; first compound 1.265 µM) was 0.907. It also gave a relative viability ([13]; first compound 4 µM) of 1.2, a relative viability ([14]; first compound 0.04 µM) of 0.264 and a relative viability ([14]; first compound 0.1265 µM) of 0.217. For the same compound, the relative viability ([14]; first compound 0.4 µM) was 0.198, the relative viability ([14]; first compound 1.265 µM) was 0.196 and the relative viability ([14]; first compound 4 µM) was 0.142. The relative viability ([15]; first compound 0.04 µM) was 0.659, the relative viability ([15]; first compound 0.1265 µM) was 0.54 and the relative viability ([15]; first compound 0.4 µM) was 0.539. The relative viability ([15]; first compound 1.265 µM) was 0.358, the relative viability ([15]; first compound 4 µM) was 0.474 and the relative viability ([16]; first compound 0.04 µM) was 1.04. The relative viability ([16]; first compound 0.1265 µM) was 1.01, the relative viability ([16]; first compound 0.4 µM) was 1.05 and the relative viability ([16]; first compound 1.265 µM) was 0.849. For the same compound, the relative viability ([16]; first compound 4 µM) was 0.353, the relative viability ([17]; first compound 0.04 µM) was 0.749 and the relative viability ([17]; first compound 0.1265 µM) was 0.832. For the same compound, the relative viability ([17]; first compound 0.4 µM) was 0.726, the relative viability ([17]; first compound 1.265 µM) was 0.418 and the relative viability ([17]; first compound 4 µM) was 0.794. The relative viability ([18]; first compound 0.04 µM) was 0.838, the relative viability ([18]; first compound 0.1265 µM) was 0.675 and the relative viability ([18]; first compound 0.4 µM) was 0.935. For the same compound, the relative viability ([18]; first compound 1.265 µM) was 0.551, the relative viability ([18]; first compound 4 µM) was 0.874 and the relative viability ([19]; first compound 0.04 µM) was 0.624. For the same compound, the relative viability ([19]; first compound 0.1265 µM) was 0.259, the relative viability ([19]; first compound 0.4 µM) was 0.245 and the relative viability ([19]; first compound 1.265 µM) was 0.195. For the same compound, the relative viability ([19]; first compound 4 µM) was 0.2, the relative viability ([20]; first compound 0.04 µM) was 0.881 and the relative viability ([20]; first compound 0.1265 µM) was 0.934. It also gave a relative viability ([20]; first compound 0.4 µM) of 0.775, a relative viability ([20]; first compound 1.265 µM) of 0.767 and a relative viability ([20]; first compound 4 µM) of 0.737. It also gave a relative viability ([21]; first compound 0.1265 µM) of 0.613, a relative viability ([21]; first compound 0.4 µM) of 0.912 and a relative viability ([21]; first compound 1.265 µM) of 0.45. It also gave a relative viability ([21]; first compound 4 µM) of 0.723, a relative viability ([22]; first compound 0.04 µM) of 1.03 and a relative viability ([22]; first compound 0.1265 µM) of 1.09. The relative viability ([22]; first compound 0.4 µM) was 0.873, the relative viability ([22]; first compound 1.265 µM) was 0.964 and the relative viability ([22]; first compound 4 µM) was 1.02. For the same compound, the relative viability ([23]; first compound 0.04 µM) was 1.11, the relative viability ([23]; first compound 0.1265 µM) was 1.3 and the relative viability ([23]; first compound 0.4 µM) was 1.19. For the same compound, the relative viability ([23]; first compound 1.265 µM) was 1.12 and the relative viability ([23]; first compound 4 µM) was 0.874.
